Test results: patent publication US12486227B2, “Small molecules for cancer therapy that reduce the expression of transcription factors KLF5 and EGR-1” (University of Florida Research Foundation, Incorporated, priority 2019, dated 2025)

Legend:
[1] = tested on: DLD-1, HCT-116, HT-29, and SW-620 colorectal cancer cell lines; test: MTT assays for blocking growth of colorectal cancer cell lines (range over four lines); assay type: cell-based; settings: Homo sapiens; DLD-1, HCT-116, HT-29, SW-620
Excerpt: (§1) The observed activity is greater than that previously seen for ML264.

[2] = tested on: major human CYP450 liver enzymes; test: Inhibition of human CYP450 liver enzymes; assay type: in vitro ADME
[3] = Oral bioavailability in mice; assay type: in vivo
[4] = tested on: SW-620 colorectal cancer cell line; test: MTT growth assay, SW-620; assay type: cell-based; settings: Homo sapiens, Table 1
Excerpt: as §1

EC50 [1]: 1.74 nM
inhibition of major human CYP450 liver enzymes [2]: does not inhibit
oral bioavailability [3]: orally bioavailable
EC50 [4]: 22 nM
Compound: CS(=O)(=O)N1CCN(C(=O)CNC(=O)/C=C/c2ccc(Cl)c(Cl)c2)CC1 [Example 9, (E)-3-(3,4-dichlorophenyl)-N-(2-(4-(methylsulfonyl)piperazin-1-yl)-2-oxoethyl)acrylamide]
